According to US9827219B2, “Compositions and methods for lowering levels of high-sensitivity C-reactive protein (HS-CRP) in a subject” (priority 2012, dated 2017):

Columns and labels:
IL-6 = experiment: MARINE study, IL-6; assay type: in vivo, human; conditions: MARINE ITT, week 12
Experimental: A multi-center, placebo-controlled randomized, double-blind, 12-week study with an open-label extension was performed to evaluate the efficacy and safety of AMR101 in patients with fasting triglyceride levels ≧500 mg/dL. The primary objective of the study was to determine the efficacy of AMR101 2 g daily and 4 g daily, compared to placebo, in lowering fasting TG levels in patients with fasting TG levels ≧500 mg/dL and ≦1500 mg/dL (≧5.65 mmol/L and ≦16.94 mmol/L).
The population for this study was men and women (women of childbearing potential will need to be on contraception or practice abstinence)>18 years of age with a body mass index ≦45 kg/m^2 who were not on lipid-altering therapy or were currently on lipid-altering therapy. Patients currently on statin therapy (with or without ezetimibe) were evaluated by the investigator as to whether this therapy can be safely discontinued at screening, or if it should be continued. If statin therapy (with or without ezetimibe) was to be continued, dose(s) must have been stable for ≧4 weeks prior to randomization. Patients taking non-statin, lipid-altering medications (niacin >200 mg/day, fibrates, fish oil, other products containing omega-3 fatty acids, or other herbal products or dietary supplements with potential lipid-altering effects), either alone or in combination with statin therapy (with or without ezetimibe), must have been able to safely discontinue non-statin, lipid-altering therapy at screening.
Approximately 240 patients were randomized at approximately 50 centers in North America, South America, Central America, Europe, India, and South Africa. The study was a 58- to 60-week, Phase 3, multi-center study consisting of 3 study periods: (1) A 6- to 8-week screening period that included a diet and lifestyle stabilization and washout period and a TG qualifying period; (2) A 12-week, double-blind, randomized, placebo-controlled treatment period; and (3) A 40-week, open-label, extension period.
After confirmation of qualifying fasting TG values, eligible patients entered a 12-week, randomized, double-blind treatment period. At Visit 4 (Week 0), patients were randomly assigned to 1 of the following treatment groups: • AMR101 2 g daily, • AMR101 4 g daily, or • Placebo.
Eligible patients were randomly assigned at Visit 4 (Week 0) to receive orally AMR101 2 g daily, AMR101 4 g daily, or placebo for the 12-week double-blind treatment period. AMR101 was provided in 1 g liquid-filled, oblong, gelatin capsules. The matching placebo capsule was filled with light liquid paraffin and contained 0 g of AMR101. During the double-blind treatment period, patients took 2 capsules (AMR101 or matching placebo) in the morning and 2 in the evening for a total of 4 capsules per day. […]

Lp-PLA2 = experiment: ANCHOR study, Lp-PLA2; assay type: in vivo, human; conditions: ANCHOR ITT, week 12
Text: Parameters (a)-(y) can be measured in accordance with any clinically acceptable methodology. For example, triglycerides, total cholesterol, HDL-C and fasting blood sugar can be sample from serum and analyzed using standard photometry techniques. VLDL-TG, LDL-C and VLDL-C can be calculated or determined using serum lipoprotein fractionation by preparative ultracentrifugation and subsequent quantitative analysis by refractometry or by analytic ultracentrifugal methodology. Apo A1, Apo B and hsCRP can be determined from serum using standard nephelometry techniques. Lipoprotein (a) can be determined from serum using standard turbidimetric immunoassay techniques. LDL particle number and particle size can be determined using nuclear magnetic resonance (NMR) spectrometry. Remnants lipoproteins and LDL-phospholipase A2 can be determined from EDTA plasma or serum and serum, respectively, using enzymatic immunoseparation techniques. Oxidized LDL, intercellular adhesion molecule-1 and interleukin-2 levels can be determined from serum using standard enzyme immunoassay techniques. These techniques are described in detail in standard textbooks, for example Tietz Fundamentals of Clinical Chemistry, 6th Ed. (Burtis, Ashwood and Borter Eds.), WB Saunders Company.
A multi-center, placebo-controlled, randomized, double-blind, 12-week study was performed to evaluate the efficacy and safety of >96% E-EPA in patients with fasting triglyceride levels ≧200 mg/dl and <500 mg/dl despite statin therapy (the mean of two qualifying entry values needed to be ≧185 mg/dl and at least one of the values needs to be ≧200 mg/dl). The primary objective of the study was to determine the efficacy of >96% E-EPA 2 g daily and 4 g daily, compared to placebo, in lowering fasting TG levels in patients with high risk for cardiovascular disease and with fasting TG levels ≧200 mg/dL and <500 mg/dL, despite treatment to LDL-C goal on statin therapy. […]

## CC/C=C\C/C=C\C/C=C\C/C=C\C/C=C\CCCC(=O)OCC [AMR101, all-cis eicosa-5,8,11,14,17-pentaenoic acid ethyl ester]
IL-6; 2 g/day
  IL-6 change from baseline (median): 3.4%
  IL-6 end-of-treatment value (median): 3.0 pg/mL
IL-6; 4 g/day
  IL-6 change from baseline (median): 0.3%
  IL-6 end-of-treatment value (median): 2.4 pg/mL
Lp-PLA2; 2 g/day
  Lp-PLA2 change from baseline (median): −1.8%
Lp-PLA2; 4 g/day
  Lp-PLA2 change from baseline (median): −12.8%
  Lp-PLA2 end-of-treatment value (median): 160.0 ng/mL
